Key:
SHP2-depleted LX-2 cells = test: SHP2 knockdown (siRNA) LX-2 cells treated with LIN; format: cell-based, human; details: LX-2 cells transfected with SHP2 siRNA
Description: (§1) The LX-2 cell line was purchased from the Cell Bank Type Culture Collection of the Chinese Academy of Sciences (Shanghai, China). Cells were cultured in DMEM supplemented with 10% [v/v] foetal bovine serum, 2 mM glutamine, 100 U/ml penicillin, and […] streptomycin. SHP-2 and control siRNAs were obtained from Suzhou GenePharma Co., Ltd. (sense 5'-3': GAGAGAGGAAAGAGUAAAUTT; antisense 5'-3': AUUUACUCUUUCCUCUCUCTT). Transfection was performed according to the manufacturer’s instructions. Subsequent real-time PCR and western blotting were performed to analyse transfection efficiency.
(§2) Total RNA was extracted from liver tissues and LX-2 cells using the TRIzol reagent. cDNA was synthesised using a PrimeScript RT Master Mix kit. Real-time PCR was performed using SYBR Green premix according to the manufacturer’s instructions. Relative expression of target genes was normalised to actin, analysed by the delta-delta-CT method and given as a ratio compared with the vehicle control. Primer sequences used in this study are listed in Supplementary Material.

[1] = tested on: HSCs activation (α-SMA, vimentin, desmin); test: CCl4 mouse model: HSC activation markers in liver; format: in vivo, C57BL/6 mice; details: CCl4 mice
Description: C57BL/6 mice (20 ± 2 g) were obtained from Hangzhou Medical College Experimental Animal Center (Hangzhou, China). The animals were maintained under controlled temperature (22°C ± 1°C), humidity (50%), and light (12 h light/12 h dark). The animals were fed a standard laboratory diet and provided with free access to tap water. All animals received humane care according to institutional animal care guidelines approved by the Experimental Animal Ethical Committee of Hangzhou Medical College. Forty mice were randomly divided into six groups: (1) vehicle control (n = 7); (2) CCl4 model (n = 7); (3) CCl4 + LIN (20 mg/kg) (n = 7); (4) CCl4 + LIN (40 mg/kg) (n = 7); (5) LIN (40 mg/kg) (n = 7); and (6) CCl4 + silymarin (SIL) (200 mg/kg) (n = 5). LIN and SIL were dissolved in 0.5% CMC-Na solution. Mice were administered LIN or SIL (intragastric administration, i.g.) once per day and CCl4 (intraperitoneal injection, i.p.; mixed 1:3 in olive oil, 2 mL/kg) twice per week for 4 weeks. Mice in the vehicle control group received olive oil (i.p. twice a week, 4 weeks) and 0.5% CMC-Na (i.g. every day, 4 weeks). After treatment, the mice were sacrificed, and plasma and liver tissues were collected and further analysed.
as §2
The formalin-fixed and de-paraffinized liver sections (5 μm) were incubated with 5% bovine serum albumin to minimise non-specific binding, and then incubated with α-SMA antibody (Santa Cruz, SC-53142) in a humidified chamber overnight at 4°C. After washing thrice with PBS, the sections were incubated with FITC-conjugated secondary antibody (SH0058; Skyhobio) for 1 h. After washing thrice, the liver sections were incubated with DAPI for 10 min. Images were captured using an inverted microscope (IX81; Olympus, Japan).
Paraffin-embedded liver sections were deparaffinized in xylene, rehydrated in a gradient of ethanol to distilled water, and then quenched by 3% hydrogen peroxide and then incubated with 5% bovine serum albumin, followed by incubation with vimentin antibody (ABclonal, A19607) at 4°C overnight, and further detected by using DAKO EnVision detection kits (Agilent Technologies Co., Ltd. K346811). The sections were counterstained with haematoxylin. Images were taken using an inverted microscope, and vimentin-positive cells were counted manually using Image-Pro Plus 6 in three random fields per sample (each group contained three samples).
Liver proteins were isolated by using a lysis buffer containing 50 mM Tris-HCl (pH7.5), 150 mM NaCl, 1 mM EDTA, 20 mM NaF, 0.5% NP-40, 10% glycerol, 1 mM phenylmethylsulphonyl fluoride, 10 μg/mL aprotinin, 10 μg/mL leupeptin, and 10 μg/mL pepstatin. The supernatants were collected after centrifugation at 3,000 g for 10 min at 4°C, and the protein concentration of each sample was determined and normalised to the same protein concentration. Protein samples were separated by sodium dodecyl sulphate-polyacrylamide gel electrophoresis and transferred onto polyvinylidene fluoride membranes. The membranes were incubated with the indicated primary and secondary antibodies, and the proteins in the membranes were visualised using a chemiluminescence kit. TGF-® antibody (CST, 3711), Smad 2/3 antibody (CST, 8685), p-Smad 2/3 antibody (CST, 8828), anti-α-SMA antibody (Santa Cruz, SC-53142), vimentin antibody (ABclonal, A19607), desmin antibody (ABclonal, A3736), GAPDH antibody (Beyotime, AF0006), and SHP2 antibody (CST, 3397). […]

LX-2 cells = test: LX-2 cells: fibrogenic gene expression and Smad2/3 phosphorylation; format: cell-based, human
Description: as §1
Total RNA was extracted from liver tissues and LX-2 cells using the TRIzol reagent. cDNA was synthesised using a PrimeScript RT Master Mix kit. […] Relative expression of target genes was normalised to actin, analysed by the delta-delta-CT method and given as a ratio compared with the vehicle control. […]
Liver proteins were isolated by using a lysis buffer containing 50 mM Tris-HCl (pH7.5), 150 mM NaCl, 1 mM EDTA, 20 mM NaF, 0.5% NP-40, 10% glycerol, 1 mM phenylmethylsulphonyl fluoride, 10 μg/mL aprotinin, 10 μg/mL leupeptin, and 10 μg/mL pepstatin. The supernatants were collected after centrifugation at 3,000 g for 10 min at 4°C, and the protein concentration of each sample was determined and normalised to the same protein concentration. […]

[2] = LIN 20 mg/kg, Western blot, p < 0.05

## C/C1=C\CCC2=C[C@@H](OC2=O)c2c(C)coc2C1 [LIN, linderalactone]
SHP2-depleted LX-2 cells
  sensitivity of fibrogenic gene expression to LIN treatment: much less sensitive
[1]; LIN
  liver α-SMA accumulation (immunofluorescence staining): largely inhibited
[1]; [2]
  protein expression of hepatic Des: significant reduction
  protein expression of hepatic Vim: significant reduction
  protein expression of hepatic α-SMA: significant reduction
[1]; LIN 20 and 40 mg/kg
  hepatic mRNA expression of Des: significantly reduced
  hepatic mRNA expression of Vim: significantly reduced
  hepatic mRNA expression of acta2: significantly reduced
LX-2 cells; 10 μM LIN, 24 h, qPCR
  fibrogenic gene expression (e.g., ACTA2, VIM, TGF-β, FN1, DES, COL1A1): significantly decreased
LX-2 cells; LIN 5 and 10 μM, Western blot
  phosphorylation level of smad2/3: significant reduced

Source: article PMC9946977, “Identification of linderalactone as a natural inhibitor of SHP2 to ameliorate CCl4-induced liver fibrosis” (Frontiers in Pharmacology, 2023)
